Measurements reported in article PMC10318897, “The structure of Leptospira interrogans GAPDH sheds light into an immunoevasion factor that can target the anaphylatoxin C5a of innate immunity” (Frontiers in Immunology, 2023).

Tests used:
LiGAPDH [1] = molecular target: T1, LiGAPDH (Leptospira interrogans, UniProt Q72QM3); experiment: NADH formation at […] nm, nonlinear fit; format: biochemical; conditions: substrate inhibition constant, 2 mM NAD+, 40 mM Tris-HCl pH 8.5, 2 mM EDTA, 25 °C
T1 construct: gene gapA; full-length, N-terminal His6 tag and TEV site (pETM-11), expressed in E. coli Rosetta(DE3); homotetramer; 36648 Da subunit
T1 sequence (Q72QM3 entry or part of it): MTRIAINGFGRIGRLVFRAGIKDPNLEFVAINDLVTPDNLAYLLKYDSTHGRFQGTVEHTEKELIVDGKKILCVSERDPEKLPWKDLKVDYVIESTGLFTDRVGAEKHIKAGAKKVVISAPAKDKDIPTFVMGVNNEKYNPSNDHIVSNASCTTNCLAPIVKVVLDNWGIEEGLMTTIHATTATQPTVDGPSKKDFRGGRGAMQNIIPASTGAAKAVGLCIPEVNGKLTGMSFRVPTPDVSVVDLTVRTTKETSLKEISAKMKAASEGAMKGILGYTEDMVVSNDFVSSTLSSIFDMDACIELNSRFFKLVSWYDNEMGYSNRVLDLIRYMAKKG

LiGAPDH [2] = molecular target: T1, LiGAPDH; experiment: X-ray crystal structure, […] Å; format: binding; conditions: active site, N-terminal Rossmann domain, all eight subunits
LiGAPDH [3] = molecular target: T1, LiGAPDH; experiment: NADH formation at […] nm, initial rates, nonlinear fit; format: biochemical

O=C[C@H](O)COP(=O)(O)O [G3P]
KSS (LiGAPDH [1]; 5 mM phosphate): 2.0 ± 0.3 mM

NC(=O)c1ccc[n+]([C@@H]2O[C@H](COP(=O)(O)OP(=O)(O)OC[C@H]3O[C@@H](n4cnc5c(N)ncnc54)[C@H](O)[C@@H]3O)[C@@H](O)[C@H]2O)c1 [NAD^+]
X-ray crystal structure, 2.37 Å (LiGAPDH [2]): The crystal structure corresponds to the holoenzyme with an NAD^+ molecule tightly bound into the active

O=P(O)(O)O [Pi]
KSS (LiGAPDH [1]; 2 mM G3P): 10 ± 1 mM

CCCCCCCCCCCCCCCc1cccc(O)c1C(=O)O [anacardic acid]
Ki (LiGAPDH [3]): 41 ± 2 µM

COc1cc(/C=C/C(=O)CC(=O)/C=C/c2ccc(O)c(OC)c2)ccc1O [curcumin]
Ki (LiGAPDH [3]): 59 ± 3 µM
